≈ marks a conversion by molar mass, not a printed value.
What was measured:
Test in all cases: high resolution minimum inhibitory concentration (HRMIC) test
Type in all cases: cell-based
Aspergillus niger 16404 = conditions: ppm active ingredient, M9GY medium, about 10^6 CFU/ml, 30°C for 24 hours, average of multiple determinations
Experimental: (§1) Biological Activity: certain compounds of the present invention were tested for activity against three microorganisms, Escherichia coli 8739 (Gram-negative bacterium) and Staphylococcus aureus 6538 (Gram-positive bacterium) and Aspergillus niger 16404.
(§2) The lowest concentration of test compound required to inhibit Staphylococcus aureus 6538, Escherichia coli 8739 and Aspergillus niger 16404 was determined by a high resolution minimum inhibitory concentration (HRMIC) test. Varying amounts of the test compounds were added to minimal salts glucose medium (see T. Maniatis, E.F. Fritsch and J. Sambrook, Molecular Cloning, p 68 (1982)) supplemented with 0.1% yeast extract (M9GY) in a 96-well microtiter plate. Ten-fold serial dilutions were performed on a Biomek™ 2000 Workstation to obtain a range of closely spaced concentrations of test compound as shown in Table 1 (based on dilutions of a 10,000 ppm active ingredient stock solution of the test compound). The plates were inoculated with cell suspension of inoculum and adjusted to provide about 10^6 CFU (colony forming units)/ml in each well. The microtiter plates were incubated at 30°C for 24 hours and then checked (optical density at 650 nm using a microplate reader) for the presence or absence of microbial growth in each well. […] Data reported (ppm active ingredient) are the average of multiple determinations (see Table 2).

Escherichia coli 8739 = conditions: for better control versus Gram-negative (E. coli) bacteria than compound 6: ratio of MIC relative to compound 6 (MIC >1000 ppm)
Experimental: as §1, §2

[1] = tested on: Staphylococcus aureus 6538
Experimental: as §1, §2

Structure (SMILES) | MIC (Aspergillus niger 16404) | MIC (Escherichia coli 8739; Escherichia coli, 8739, ppm active ingredient, M9GY medium, about 10^6 CFU/ml, 30°C for 24 hours, average of multiple determinations, read-out: MIC (ppm) E. coli) | better control versus Gram-negative (E. coli) bacteria than compound 6 (Escherichia coli 8739) | MIC ([1]; Staphylococcus aureus, 6538, ppm active ingredient, M9GY medium, about 10^6 CFU/ml, 30°C for 24 hours, average of multiple determinations, read-out: MIC (ppm) S. aur) | better control versus Gram-positive (S. aur) bacteria than compound 6 ([1]; ratio of MIC relative to compound 6)
Cn1sc(Sc2cccc[n+]2[O-])cc1=O [Compound 3, [2-methyl-3-isothiazolon-5-yl]-(1-oxypyridin-2-yl)sulfide] | 60 µg/mL (≈ 250 µM) | 6 µg/mL (≈ 25 µM) | ≥ 160 fold | 1 µg/mL (≈ 4.16 µM) | 5 fold
CCCCCCCCn1sc(Sc2cccc[n+]2[O-])c(Cl)c1=O [Compound 5, [4-chloro-2-n-octyl-3-isothiazolon-5-yl]-(1-oxypyridin-2-yl)sulfide] | – | – | at least 30 fold | – | –

From patent publication EP1223171A1, “Antimicrobial 5-substituted-3-isothiazolone compounds and methods of use” (Rohm and Haas, priority 2001, dated 2002)
